For assay [1], the system named is C57BL/6J-Lep^ob mice. Nature of the assay: Prevention of Obesity in Mice (Table 1). It is filed as in vivo. The following applies: 4-week-old female mice, in g. As to the method:
The ability of hypoestoxides and hypoestes rosea dried leaf powder to prevent obesity was studied. Hypoestoxide and hypoestes rosea dried leaf powder was administered to C57BL/6J-Lep^ob mice. The mice are homozygous for the obese spontaneous mutation and are first recognizable as such at approximately 4 weeks of age. At 4 weeks, the mice weigh 20-25 grams, and may reach three to four times the weight of wild-type mice. Three 4-week-old female mice were placed in each of four treatment conditions, for a total of twelve mice in the study: (i) control; (ii) hypoestoxide was administered orally at a dose of 10 mg/kg; (iii) hypoestoxide was administered orally at a dose of 100 mg/kg; or (iv) hypoestes dried leaf powder was administered orally at a dose of 100 mg/kg. Treatments were administered once a day and the study continued for 21 days.

Assay [2] concerns C57BL/6J-Lep^ob mice. As to the kind of experiment: Treatment of Obesity in Mice (Table 2). It is filed as in vivo. The following applies: 10 mg/kg orally once a day for 50 days, approx. 4 months old, one mouse. The method, then: Treatment of obesity with hypoestoxide and hypoestes rosea dried leaf powder was also studied. Hypoestoxide and hypoestes rosea dried leaf powder was administered to C57BL/6J-Lep^ob mice. The mice were treated at approximately 4 months of age at a weight of approximately 50 grams. One mouse was placed in each of three treatment conditions: (i) control; (ii) hypoestoxide was administered orally at a dose of 10 mg/kg; or (iii) hypoestes dried leaf powder was administered orally at a dose of 100 mg/kg. Treatments were administered once a day, with hypoestoxide treatment lasting 50 days and hypoestes dried leaf powder treatment lasting 21 days.

Each structure is given as a SMILES string.

On to `C=C1C(=O)C[C@H]2C[C@@H]3O[C@@]3(C)CC[C@@H]3O[C@@]3(C)C[C@@H](OC(C)=O)[C@H]1C2(C)C` [Hypoestoxide, hypoestoxide], for which the “weight of mice, Prevention of Obesity in Mice” value (from here on “weight of mice”) in assay [1] (10 mg/kg orally once a day for 21 days) worked out at 41.6 ± 2.0; in assay [1] (100 mg/kg orally once a day for 21 days), 40.0 ± 1.5; in assay [1] (day 7, 10 mg/kg orally once a day for 21 days) it was 19.6 ± 2.0; in assay [1] (day 7, 100 mg/kg orally once a day for 21 days) it was 20.9 ± 1.2; in assay [1] (day 14, 10 mg/kg orally once a day for 21 days), 25.4 ± 1.6; in assay [1] (day 14, 100 mg/kg orally once a day for 21 days), 23.8 ± 0.6. In addition, the “weight of mice” value in assay [1] (day 21, 10 mg/kg orally once a day for 21 days) is 27.5 ± 1.5; in assay [1] (day 21, 100 mg/kg orally once a day for 21 days), 27.0 ± 0.8; in assay [1] (day 28, 10 mg/kg orally once a day for 21 days), 28.8 ± 2.3; in assay [1] (day 28, 100 mg/kg orally once a day for 21 days), 26.4 ± 2.2; in assay [1] (day 35, 10 mg/kg orally once a day for 21 days), 30.3 ± 3.2; in assay [1] (day 35, 100 mg/kg orally once a day for 21 days), 29.0 ± 2.9. Also, the “weight of mice” value in assay [1] (day −1 (before treatment), group 10 mg/kg orally once a day for 21 days) came to 21.0 ± 1.4; in assay [1] (day −1 (before treatment), group 100 mg/kg orally once a day for 21 days) it was 24.3 ± 1.1. For the same compound, the weight of mouse, Treatment of Obesity in Mice is 53 g in assay [2] (day 7); 51.5 g in assay [2] (day 14); 51 g in assay [2] (day 21); 50.4 g in assay [2] (day 28); 50 g in assay [2] (day 35); 69.8 g in assay [2] (day 160). In assay [2] (day −1 (before treatment)), this compound showed a weight of mouse, Treatment of Obesity in Mice of 53 g.

The values above are taken from patent US20060094695A1, “Hypoestoxides, derivatives and agonists thereof for use in the prophylaxis and treatment of obesity” (Paraquest, Inc., priority 2004, published 2006).
